{
  "source": "patent US11053204B2",
  "about": "“Pyrimidinyloxy benzene derivatives as herbicides” (FMC Corporation, priority 2015, dated 2021)",
  "assay_type_in_all_cases": "in vivo",
  "key": {"[1]": {"tested_on": "galium (catchweed bedstraw, Galium aparine)", "assay": "Test C preemergence, plant response rating"}, "[2]": {"tested_on": "johnsongrass (Sorghum halepense)", "assay": "Test C preemergence, plant response rating"}, "[3]": {"tested_on": "barnyardgrass (Echinochloa crus-galli)", "assay": "Test C preemergence, plant response rating", "conditions": "Preemergence"}, "[4]": {"tested_on": "pigweed, palmer (palmer pigweed, Amaranthus palmeri)", "assay": "Test C preemergence, plant response rating"}, "[5]": {"tested_on": "surinam grass (Brachiaria decumbens)", "assay": "Test C preemergence, plant response rating"}, "[6]": {"tested_on": "nightshade (eastern black nightshade, Solanum ptycanthum)", "assay": "Test C preemergence, plant response rating"}, "[7]": {"tested_on": "wild poinsettia (Euphorbia heterophylla)", "assay": "Test C preemergence, plant response rating"}, "[8]": {"tested_on": "windgrass (Apera spica-venti)", "assay": "Test C preemergence, plant response rating"}, "[9]": {"tested_on": "oat, wild (wild oat Avena fatua)", "assay": "Test C preemergence, plant response rating"}, "[10]": {"tested_on": "Canada thistle (Cirsium arvense)", "assay": "Test C postemergence, plant response rating", "conditions": "for Canada Thistle plant response rating: scale 0 to 100 (0 no effect, 100 complete control)", "outline": "(§1)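 Greenhouse plants rated visually against untreated controls 13–15 d after treatment, scale 0 = no effect to 100 = complete control. Postemergence sprays went onto potted plants 2–18 cm tall (1–4 leaves); preemergence sprays onto soil freshly sown in loam–sand or silt loam, chemicals formulated in non-phytotoxic solvent with surfactant.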"}, "[11]": {"tested_on": "buckwheat, wild (wild buckwheat, Polygonum convolvulus)", "assay": "Test C postemergence, plant response rating", "conditions": "for Buckwheat, Wild plant response rating: scale 0 to 100 (0 no effect, 100 complete control)", "outline": "as §1"}, "[12]": {"tested_on": "field poppy (Papaver rhoeas)", "assay": "Test C postemergence, plant response rating", "conditions": "for Field Poppy plant response rating: scale 0 to 100 (0 no effect, 100 complete control)", "outline": "as §1"}, "[13]": {"tested_on": "field violet (Viola arvensis)", "assay": "Test C postemergence, plant response rating", "conditions": "for Field Violet plant response rating: scale 0 to 100 (0 no effect, 100 complete control)", "outline": "as §1"}, "[14]": {"tested_on": "geranium, cutleaf (cutleaf geranium, Geranium dissectum)", "assay": "Test C postemergence, plant response rating", "conditions": "for Geranium, Cutleaf plant response rating: scale 0 to 100 (0 no effect, 100 complete control)", "outline": "as §1"}, "[15]": {"tested_on": "nightshade (eastern black nightshade, Solanum ptycanthum)", "assay": "Test C postemergence, plant response rating", "conditions": "for Nightshade plant response rating: scale 0 to 100 (0 no effect, 100 complete control)", "outline": "as §1"}, "[16]": {"tested_on": "pigweed, palmer (palmer pigweed, Amaranthus palmeri)", "assay": "Test C postemergence, plant response rating", "conditions": "for Pigweed, Palmer plant response rating: scale 0 to 100 (0 no effect, 100 complete control)", "outline": "as §1"}, "[17]": {"tested_on": "speedwell (bird's-eye speedwell, Veronica persica)", "assay": "Test C postemergence, plant response rating", "conditions": "for Speedwell plant response rating: scale 0 to 100 (0 no effect, 100 complete control)", "outline": "as §1"}, "[18]": {"tested_on": "wild mustard (Sinapis arvensis)", "assay": "Test C postemergence, plant response rating", "conditions": "for Mustard, Wild plant response rating: scale 0 to 100 (0 no effect, 100 complete control)", "outline": "as §1"}, "[19]": {"tested_on": "windgrass (Apera spica-venti)", "assay": "Test C postemergence, plant response rating", "outline": "as §1"}},
  "data": [
    {"smiles": "N#CC(CCCC(F)(F)F)c1ccccc1Oc1ncc(Cl)cn1", "note": "(stereo not shown) [Compound 144]", "values": [
      {"measurement": "Plant response rating, Galium", "setting": "[1]; 31 g ai/ha, scale 0 to 100", "result": 50},
      {"measurement": "Plant response rating, Galium", "setting": "[1]; 62 g ai/ha, scale 0 to 100", "result": 50},
      {"measurement": "Plant response rating, Galium", "setting": "[1]; 125 g ai/ha, scale of 0 to 100", "result": 55},
      {"measurement": "Plant response rating, Johnsongrass", "setting": "[2]; 31 g ai/ha, scale 0 to 100", "result": 10},
      {"measurement": "Plant response rating, Johnsongrass", "setting": "[2]; 62 g ai/ha, scale 0 to 100", "result": 40},
      {"measurement": "Plant response rating, Johnsongrass", "setting": "[2]; 125 g ai/ha, scale of 0 to 100", "result": 70},
      {"measurement": "Plant response rating, Barnyardgrass", "setting": "[3]; 125 g ai/ha, scale of 0 to 100", "result": 95},
      {"measurement": "Plant response rating, Barnyardgrass", "setting": "[3]; 16 g ai/ha, scale 0 to 100", "result": 10},
      {"measurement": "Plant response rating, Barnyardgrass", "setting": "[3]; 31 g ai/ha, scale 0 to 100", "result": 40},
      {"measurement": "Plant response rating, Barnyardgrass", "setting": "[3]; 62 g ai/ha, scale 0 to 100", "result": 70},
      {"measurement": "Plant response rating, Pigweed, Palmer", "setting": "[4]; 31 g ai/ha, scale 0 to 100", "result": 100},
      {"measurement": "Plant response rating, Pigweed, Palmer", "setting": "[4]; 62 g ai/ha, scale 0 to 100", "result": 100},
      {"measurement": "Plant response rating, Pigweed, Palmer", "setting": "[4]; 125 g ai/ha, scale of 0 to 100", "result": 100},
      {"measurement": "Plant response rating, Surinam Grass", "setting": "[5]; 31 g ai/ha, scale 0 to 100", "result": 5},
      {"measurement": "Plant response rating, Surinam Grass", "setting": "[5]; 62 g ai/ha, scale 0 to 100", "result": 70},
      {"measurement": "Plant response rating, Surinam Grass", "setting": "[5]; 125 g ai/ha, scale of 0 to 100", "result": 60},
      {"measurement": "Plant response rating, Nightshade", "setting": "[6]; 31 g ai/ha, scale 0 to 100", "result": 65},
      {"measurement": "Plant response rating, Nightshade", "setting": "[6]; 62 g ai/ha, scale 0 to 100", "result": 90},
      {"measurement": "Plant response rating, Nightshade", "setting": "[6]; 125 g ai/ha, scale of 0 to 100", "result": 100},
      {"measurement": "Plant response rating, Poinsettia, Wild", "setting": "[7]; 31 g ai/ha, scale 0 to 100", "result": 5},
      {"measurement": "Plant response rating, Poinsettia, Wild", "setting": "[7]; 62 g ai/ha, scale 0 to 100", "result": 40},
      {"measurement": "Plant response rating, Poinsettia, Wild", "setting": "[7]; 125 g ai/ha, scale of 0 to 100", "result": 80},
      {"measurement": "Plant response rating, Windgrass", "setting": "[8]; 31 g ai/ha, scale 0 to 100", "result": 30},
      {"measurement": "Plant response rating, Windgrass", "setting": "[8]; 62 g ai/ha, scale 0 to 100", "result": 80},
      {"measurement": "Plant response rating, Windgrass", "setting": "[8]; 125 g ai/ha, scale of 0 to 100", "result": 90},
      {"measurement": "Plant response rating, Oat, Wild", "setting": "[9]; 31 g ai/ha, scale 0 to 100", "result": 5},
      {"measurement": "Plant response rating, Oat, Wild", "setting": "[9]; 62 g ai/ha, scale 0 to 100", "result": 10},
      {"measurement": "Plant response rating, Oat, Wild", "setting": "[9]; 125 g ai/ha, scale of 0 to 100", "result": 10},
      {"measurement": "Plant response rating, Canada Thistle", "setting": "[10]; 16 g ai/ha, scale of 0 to 100", "result": 90},
      {"measurement": "Plant response rating, Canada Thistle", "setting": "[10]; 31 g ai/ha, scale 0 to 100", "result": 60},
      {"measurement": "Canada Thistle plant response rating", "setting": "[10]; 62 g ai/ha", "result": 90},
      {"measurement": "Canada Thistle plant response rating", "setting": "[10]; 125 g ai/ha", "result": 90},
      {"measurement": "Plant response rating, Buckwheat, Wild", "setting": "[11]; 16 g ai/ha, scale of 0 to 100", "result": 70},
      {"measurement": "Plant response rating, Buckwheat, Wild", "setting": "[11]; 31 g ai/ha, scale 0 to 100", "result": 55},
      {"measurement": "Buckwheat, Wild plant response rating", "setting": "[11]; 62 g ai/ha", "result": 80},
      {"measurement": "Buckwheat, Wild plant response rating", "setting": "[11]; 125 g ai/ha", "result": 95},
      {"measurement": "Plant response rating, Field Poppy", "setting": "[12]; 16 g ai/ha, scale of 0 to 100", "result": 60},
      {"measurement": "Plant response rating, Field Poppy", "setting": "[12]; 31 g ai/ha, scale 0 to 100", "result": 80},
      {"measurement": "Field Poppy plant response rating", "setting": "[12]; 62 g ai/ha", "result": 90},
      {"measurement": "Field Poppy plant response rating", "setting": "[12]; 125 g ai/ha", "result": 100},
      {"measurement": "Plant response rating, Field Violet", "setting": "[13]; 16 g ai/ha, scale of 0 to 100", "result": 60},
      {"measurement": "Plant response rating, Field Violet", "setting": "[13]; 31 g ai/ha, scale 0 to 100", "result": 65},
      {"measurement": "Field Violet plant response rating", "setting": "[13]; 62 g ai/ha", "result": 80},
      {"measurement": "Field Violet plant response rating", "setting": "[13]; 125 g ai/ha", "result": 90},
      {"measurement": "Plant response rating, Geranium, Cutleaf", "setting": "[14]; 16 g ai/ha, scale of 0 to 100", "result": 15},
      {"measurement": "Plant response rating, Geranium, Cutleaf", "setting": "[14]; 31 g ai/ha, scale 0 to 100", "result": 20},
      {"measurement": "Geranium, Cutleaf plant response rating", "setting": "[14]; 62 g ai/ha", "result": 35},
      {"measurement": "Geranium, Cutleaf plant response rating", "setting": "[14]; 125 g ai/ha", "result": 40},
      {"measurement": "Plant response rating, Nightshade", "setting": "[15]; 16 g ai/ha, scale of 0 to 100", "result": 65},
      {"measurement": "Plant response rating, Nightshade", "setting": "[15]; 31 g ai/ha, scale 0 to 100", "result": 75},
      {"measurement": "Nightshade plant response rating", "setting": "[15]; 62 g ai/ha", "result": 75},
      {"measurement": "Nightshade plant response rating", "setting": "[15]; 125 g ai/ha", "result": 90},
      {"measurement": "Plant response rating, Pigweed, Palmer", "setting": "[16]; 16 g ai/ha, scale of 0 to 100", "result": 25},
      {"measurement": "Plant response rating, Pigweed, Palmer", "setting": "[16]; 31 g ai/ha, scale 0 to 100", "result": 35},
      {"measurement": "Pigweed, Palmer plant response rating", "setting": "[16]; 62 g ai/ha", "result": 40},
      {"measurement": "Pigweed, Palmer plant response rating", "setting": "[16]; 125 g ai/ha", "result": 80},
      {"measurement": "Plant response rating, Speedwell", "setting": "[17]; 16 g ai/ha, scale of 0 to 100", "result": 60},
      {"measurement": "Plant response rating, Speedwell", "setting": "[17]; 31 g ai/ha, scale 0 to 100", "result": 70},
      {"measurement": "Speedwell plant response rating", "setting": "[17]; 62 g ai/ha", "result": 95},
      {"measurement": "Speedwell plant response rating", "setting": "[17]; 125 g ai/ha", "result": 95},
      {"measurement": "Plant response rating, Mustard, Wild", "setting": "[18]; 16 g ai/ha, scale of 0 to 100", "result": 70},
      {"measurement": "Plant response rating, Mustard, Wild", "setting": "[18]; 31 g ai/ha, scale 0 to 100", "result": 70},
      {"measurement": "Mustard, Wild plant response rating", "setting": "[18]; 62 g ai/ha", "result": 80},
      {"measurement": "Mustard, Wild plant response rating", "setting": "[18]; 125 g ai/ha", "result": 95},
      {"measurement": "Plant response rating, Windgrass", "setting": "[19]; 16 g ai/ha, scale of 0 to 100", "result": 10},
      {"measurement": "Plant response rating, Windgrass", "setting": "[19]; 31 g ai/ha, scale 0 to 100", "result": 10},
      {"measurement": "Windgrass plant response rating", "setting": "[19]; 125 g ai/ha, scale 0 to 100 (0 no effect, 100 complete control)", "result": 30}
    ]}
  ]
}
